{"source": "BindingDB's records for doi:10.1016/S0960-894X(97)00406-X", "about": "(1997)", "note": "Where a name gives a salt, the structure may show the parent alone."}
{"assay": "Compound was evaluated for the inhibition of Opioid receptor delta 1 binding to guinea pig brain membranes, using 0.2 nM [3H]naltrindole as radioligand", "units": {"Ki": "nM"}}
{"smiles": "CN(C(=O)Cc1ccc(Cl)c(Cl)c1)C(CN1CCCC1)c1cccc(NC(=S)Nc2ccc(-c3c4ccc(=O)cc-4oc4cc(O)ccc34)c(C(=O)O)c2)c1", "note": "(stereo not given) [5-{3-[3-(1-{[2-(3,4-Dichloro-phenyl)-acetyl]-methyl-amino}-2-pyrrolidin-1-yl-ethyl)-phenyl]-thioureido}-2-(6-hydroxy-3-oxo-3H-xanthen-9-yl)-benzoic acid]", "Ki": 1.8}
{"smiles": "CN(C(=O)Cc1ccc(Cl)c(Cl)c1)[C@@H](CN1CCCC1)c1cccc(NC(=S)Nc2ccc(-c3c4ccc(=O)cc-4oc4cc(O)ccc34)c(C(=O)O)c2)c1", "note": "[5-{3-[3-((R)-1-{[2-(3,4-Dichloro-phenyl)-acetyl]-methyl-amino}-2-pyrrolidin-1-yl-ethyl)-phenyl]-thioureido}-2-(6-hydroxy-3-oxo-3H-xanthen-9-yl)-benzoic acid]", "Ki": 86}
{"smiles": "CN(C(=O)Cc1ccc(Cl)c(Cl)c1)[C@H](CN1CCCC1)c1cccc(NC(=S)Nc2ccc(-c3c4ccc(=O)cc-4oc4cc(O)ccc34)c(C(=O)O)c2)c1", "note": "[5-{3-[3-((S)-1-{[2-(3,4-Dichloro-phenyl)-acetyl]-methyl-amino}-2-pyrrolidin-1-yl-ethyl)-phenyl]-thioureido}-2-(6-hydroxy-3-oxo-3H-xanthen-9-yl)-benzoic acid]", "Ki": 0.898}
{"smiles": "CC(=O)Nc1cccc([C@H](CN2CCCC2)N(C)C(=O)Cc2ccc(Cl)c(Cl)c2)c1", "note": "[N-[(R)-1-(3-Acetylamino-phenyl)-2-pyrrolidin-1-yl-ethyl]-2-(3,4-dichloro-phenyl)-N-methyl-acetamide; hydrochloride]", "Ki": 3070}
{"smiles": "CC(=O)Nc1cccc([C@@H](CN2CCCC2)N(C)C(=O)Cc2ccc(Cl)c(Cl)c2)c1", "note": "[N-[(S)-1-(3-Acetylamino-phenyl)-2-pyrrolidin-1-yl-ethyl]-2-(3,4-dichloro-phenyl)-N-methyl-acetamide; hydrochloride]", "Ki": 14}
